Experimental findings from ChEMBL document CHEMBL2384916, “Synthesis and in vitro evaluation of a PDT active BODIPY-NLS conjugate” (Bioorg Med Chem Lett, 2013) are described below.

As a reminder, the IC50 is the point on the concentration scale where inhibition reaches its midpoint.

The subject of series [1] is T-24. In words: Cytotoxicity against human T24 cells assessed as growth inhibition after 24 hrs by MTT assay in absence of light. Format: cell-based. As to conditions: T-24, 24 h; call rule not given here. For orientation: Tetrazolium dyes change colour on reduction, which living cells bring about.
The subject of series [2] is T-24. In words: Phototoxicity against human T24 cells assessed as growth inhibition incubated for 4 hrs followed by irradiation for 15 mins measured after 24 hrs by MTT assay. The series is classed as functional, cell-based. As to conditions: T-24, light or radiation study.
Series [3] can be described thus: Drug uptake in lysosome of human T24 cells at 100 nM after 30 mins by confocal microscopic analysis. The series is classed as ADME, cell-based. As to conditions: t-24, 0.5 h, 0.1 µM.
Series [4] is described as follows: Drug uptake in endoplasmic reticulum of human T24 cells at 100 nM after 30 mins by confocal microscopic analysis. Particulars: t-24, 0.5 h, 0.1 µM. The series is classed as ADME, cell-based.
Series [5] can be described thus: Drug uptake in nucleus of human T24 cells at 100 nM after 30 mins by confocal microscopic analysis. Format: ADME, cell-based. Particulars: t-24, 0.5 h, 0.1 µM.

For the compound `CC1=C(I)C(C)=[N+]2C1=C(c1ccc(-c3cn(CC(=O)OC(C)(C)C)nn3)cc1)c1c(C)c(I)c(C)n1[B-]2(F)F`, the results for the IC50 in the series with T-24 [1] and in the series with T-24 [2] were over 10000 nM and 42 nM, respectively. For the same compound, the Drug uptake entry in series [3] is “Active”; in series [4], “Not Active”; in series [5], “Not Active”.

Regarding `CC1=C(I)C(C)=[N+]2C1=C(c1ccc(-c3cn(CC(=O)N4CCC[C@H]4C(=O)N[C@@H](CCCCN)C(=O)N[C@@H](CCCCN)C(=O)N[C@@H](CCCCN)C(=O)N[C@@H](CCCNC(=N)N)C(=O)N[C@@H](CCCCN)C(=O)N[C@H](C(N)=O)C(C)C)nn3)cc1)c1c(C)c(I)c(C)n1[B-]2(F)F`, the IC50 was over 10000 nM in the series on T-24 [1] and 16 nM with T-24 [2]. Also, the values for the Drug uptake result in series [3], in series [4] and in series [5] were “Active”, “Active” and “Not Active”, respectively.
